# Measurements published in ChEMBL document CHEMBL1201862, “PubChem BioAssay data set” (2004).
#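 Exposure lasted 48 hours, with cells grown in 96-well plates and compounds tested at five concentrations. GI50 is the concentration that inhibits growth by half.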 Activity calls are given as the source filed them. No stated cut-off is given here; in the data, active = GI50 up to about 1.1 µM and inactive = higher.
# Legend:
# Experiment in all cases: DTP human tumour cell line panel, 48 h
# 786-0 = test system: 786-0
# A498 = test system: A498
# A549 = test system: A549
# ACHN = test system: ACHN
# CAKI-1 = test system: CAKI-1
# CCRF-CEM = test system: CCRF-CEM
# COLO 205 = test system: COLO 205
# DLD-1 = test system: DLD-1
# DMS-114 = test system: DMS-114
# DMS-273 = test system: DMS-273
# EKVX = test system: EKVX
# HCC 2998 = test system: HCC 2998
# HCT-116 = test system: HCT-116
# HCT-15 = test system: HCT-15
# HL-60 = test system: HL-60
# HOP-62 = test system: HOP-62
# IGROV-1 = test system: IGROV-1
# K562 = test system: K562
# KM-20L2 = test system: KM-20L2
# KM12 = test system: KM12
# LOX IMVI = test system: LOX IMVI
# LXFL 529 = test system: LXFL 529
# M14 = test system: M14
# M19-MEL = test system: M19-MEL
# MOLT-4 = test system: MOLT-4
# Malme-3M = test system: Malme-3M
# NCI-H226 = test system: NCI-H226
# NCI-H460 = test system: NCI-H460
# NCI-H522 = test system: NCI-H522
# OVCAR-3 = test system: OVCAR-3
# OVCAR-5 = test system: OVCAR-5
# OVCAR-8 = test system: OVCAR-8
# RPMI-8226 = test system: RPMI-8226
# RXF 393 = test system: RXF 393
# SF-268 = test system: SF-268
# SF-295 = test system: SF-295
# SF-539 = test system: SF-539
# SK-MEL-2 = test system: SK-MEL-2
# SK-MEL-5 = test system: SK-MEL-5
# SN12C = test system: SN12C
# SNB-19 = test system: SNB-19
# SNB-75 = test system: SNB-75
# SNB-78 = test system: SNB-78
# SW-620 = test system: SW-620
# TK-10 = test system: TK-10
# U-251 = test system: U-251
# UACC-62 = test system: UACC-62
# UO-31 = test system: UO-31
# HOP-92 = test system: HOP-92
# HT-29 = test system: HT-29
# NCI-H23 = test system: NCI-H23
# OVCAR-4 = test system: OVCAR-4
# SK-MEL-28 = test system: SK-MEL-28
# SR = test system: SR
# UACC-257 = test system: UACC-257
# BT-549 = test system: BT-549
# DU-145 = test system: DU-145
# Hs-578T = test system: Hs-578T
# MCF7 = test system: MCF7
# MDA-MB-231 = test system: MDA-MB-231
# MDA-MB-435 = test system: MDA-MB-435
# MDA-N = test system: MDA-N
# NCI/ADR-RES = test system: NCI/ADR-RES
# PC-3 = test system: PC-3
# SK-OV-3 = test system: SK-OV-3
# T47D = test system: T47D
compound,measurement,setting,value
O=S(=O)(OI(OI(OS(=O)(=O)C(F)(F)F)c1ccccc1)c1ccccc1)C(F)(F)F,GI50,786-0,50.4 µM (inactive)
same,GI50,A498,> 100 µM (inactive)
same,GI50,A549,46.8 µM (inactive)
same,GI50,ACHN,52.1 µM (inactive)
same,GI50,CAKI-1,27.8 µM (inactive)
same,GI50,CCRF-CEM,13.9 µM (inactive)
same,GI50,COLO 205,51.2 µM (inactive)
same,GI50,DLD-1,58.9 µM (inactive)
same,GI50,DMS-114,5.18 µM (inactive)
same,GI50,DMS-273,23.7 µM (inactive)
same,GI50,EKVX,58.9 µM (inactive)
same,GI50,HCC 2998,> 100 µM (inactive)
same,GI50,HCT-116,23.7 µM (inactive)
same,GI50,HCT-15,> 100 µM
same,GI50,HL-60,4.33 µM (inactive)
same,GI50,HOP-62,90.8 µM (inactive)
same,GI50,IGROV-1,55.8 µM (inactive)
same,GI50,K562,6.43 µM (inactive)
same,GI50,KM-20L2,71.6 µM (inactive)
same,GI50,KM12,28.2 µM (inactive)
same,GI50,LOX IMVI,20 µM (inactive)
same,GI50,LXFL 529,26.1 µM (inactive)
same,GI50,M14,43 µM (inactive)
same,GI50,M19-MEL,40.7 µM (inactive)
same,GI50,MOLT-4,20.2 µM (inactive)
same,GI50,Malme-3M,11.7 µM (inactive)
same,GI50,NCI-H226,58.6 µM (inactive)
same,GI50,NCI-H460,39.5 µM (inactive)
same,GI50,NCI-H522,23.2 µM (inactive)
same,GI50,OVCAR-3,93.3 µM (inactive)
same,GI50,OVCAR-5,> 100 µM (inactive)
same,GI50,OVCAR-8,48.8 µM (inactive)
same,GI50,RPMI-8226,11.6 µM (inactive)
same,GI50,RXF 393,17.3 µM (inactive)
same,GI50,SF-268,31.3 µM (inactive)
same,GI50,SF-295,21.7 µM (inactive)
same,GI50,SF-539,86.3 µM (inactive)
same,GI50,SK-MEL-2,38.5 µM (inactive)
same,GI50,SK-MEL-5,13.5 µM (inactive)
same,GI50,SN12C,49.8 µM (inactive)
same,GI50,SNB-19,44.3 µM (inactive)
same,GI50,SNB-75,60.8 µM (inactive)
same,GI50,SNB-78,50.6 µM (inactive)
same,GI50,SW-620,32 µM (inactive)
same,GI50,TK-10,> 100 µM (inactive)
same,GI50,U-251,> 100 µM (inactive)
same,GI50,UACC-62,64.4 µM (inactive)
same,GI50,UO-31,47.2 µM (inactive)
CC1(Cl)CC2C(CC1Sc1nnnn1-c1ccccc1)C2(C)C (stereo not given),GI50,A549,67.1 µM (inactive)
same,GI50,ACHN,75.5 µM (inactive)
same,GI50,CCRF-CEM,36.7 µM (inactive)
same,GI50,COLO 205,83.8 µM (inactive)
same,GI50,DLD-1,> 100 µM (inactive)
same,GI50,DMS-114,45.9 µM (inactive)
same,GI50,DMS-273,71.9 µM (inactive)
same,GI50,EKVX,28.1 µM (inactive)
same,GI50,HCC 2998,> 100 µM (inactive)
same,GI50,HCT-116,69.8 µM (inactive)
same,GI50,HCT-15,41.3 µM
same,GI50,HL-60,17.9 µM (inactive)
same,GI50,HOP-62,> 100 µM (inactive)
same,GI50,HOP-92,58.6 µM (inactive)
same,GI50,HT-29,> 100 µM (inactive)
same,GI50,IGROV-1,> 100 µM (inactive)
same,GI50,K562,32.4 µM (inactive)
same,GI50,KM-20L2,95.5 µM (inactive)
same,GI50,KM12,55.6 µM (inactive)
same,GI50,LOX IMVI,> 100 µM (inactive)
same,GI50,LXFL 529,60.3 µM (inactive)
same,GI50,M14,> 100 µM (inactive)
same,GI50,M19-MEL,> 100 µM (inactive)
same,GI50,MOLT-4,30.1 µM (inactive)
same,GI50,NCI-H226,> 100 µM (inactive)
same,GI50,NCI-H23,64.3 µM (inactive)
same,GI50,NCI-H460,89.9 µM (inactive)
same,GI50,OVCAR-3,38.7 µM (inactive)
same,GI50,OVCAR-4,> 100 µM (inactive)
same,GI50,OVCAR-5,> 100 µM (inactive)
same,GI50,OVCAR-8,> 100 µM (inactive)
same,GI50,RPMI-8226,27.8 µM (inactive)
same,GI50,RXF 393,48.9 µM (inactive)
same,GI50,SF-268,> 100 µM (inactive)
same,GI50,SF-295,40.8 µM (inactive)
same,GI50,SF-539,> 100 µM (inactive)
same,GI50,SK-MEL-28,> 100 µM (inactive)
same,GI50,SK-MEL-2,> 100 µM (inactive)
same,GI50,SK-MEL-5,58.2 µM (inactive)
same,GI50,SN12C,> 100 µM (inactive)
same,GI50,SNB-19,83.2 µM (inactive)
same,GI50,SNB-78,92.7 µM (inactive)
same,GI50,SR,29.6 µM (inactive)
same,GI50,SW-620,> 100 µM (inactive)
same,GI50,TK-10,> 100 µM (inactive)
same,GI50,UACC-257,87.3 µM (inactive)
same,GI50,UACC-62,98.9 µM (inactive)
same,GI50,UO-31,37.5 µM (inactive)
Cc1nn2c(=O)c([N+](=O)[O-])c(/C=C/c3ccc(F)cc3)nc2s1,GI50,786-0,10.9 µM (inactive)
same,GI50,A498,16.3 µM (inactive)
same,GI50,A549,9.06 µM (inactive)
same,GI50,ACHN,11.5 µM (inactive)
same,GI50,BT-549,5.12 µM (inactive)
same,GI50,CAKI-1,8.67 µM (inactive)
same,GI50,CCRF-CEM,4.47 µM (inactive)
same,GI50,COLO 205,12.1 µM (inactive)
same,GI50,DU-145,16.2 µM (inactive)
same,GI50,EKVX,5.64 µM (inactive)
same,GI50,HCC 2998,11.4 µM (inactive)
same,GI50,HCT-116,6.41 µM (inactive)
same,GI50,HCT-15,7.5 µM
same,GI50,HL-60,3.95 µM (inactive)
same,GI50,HOP-62,15 µM (inactive)
same,GI50,HOP-92,15.5 µM (inactive)
same,GI50,HT-29,6.52 µM (inactive)
same,GI50,Hs-578T,11.2 µM (inactive)
same,GI50,IGROV-1,10.5 µM (inactive)
same,GI50,K562,5.69 µM (inactive)
same,GI50,KM12,7.24 µM (inactive)
same,GI50,LOX IMVI,2.79 µM (inactive)
same,GI50,M14,11.3 µM (inactive)
same,GI50,MCF7,3.4 µM (inactive)
same,GI50,MDA-MB-231,13.9 µM (inactive)
same,GI50,MDA-MB-435,4.33 µM (inactive)
same,GI50,MDA-N,5.96 µM (inactive)
same,GI50,MOLT-4,10.1 µM (inactive)
same,GI50,Malme-3M,11.6 µM (inactive)
same,GI50,NCI-H226,11.4 µM (inactive)
same,GI50,NCI-H23,15.2 µM (inactive)
same,GI50,NCI-H460,8.34 µM (inactive)
same,GI50,NCI-H522,8.49 µM (inactive)
same,GI50,NCI/ADR-RES,9.77 µM (inactive)
same,GI50,OVCAR-3,4.28 µM (inactive)
same,GI50,OVCAR-4,11 µM (inactive)
same,GI50,OVCAR-5,9.89 µM (inactive)
same,GI50,OVCAR-8,6.07 µM (inactive)
same,GI50,PC-3,9.42 µM (inactive)
same,GI50,RPMI-8226,3.51 µM (inactive)
same,GI50,RXF 393,4.42 µM (inactive)
same,GI50,SF-268,8.87 µM (inactive)
same,GI50,SF-295,11.8 µM (inactive)
same,GI50,SF-539,8.55 µM (inactive)
same,GI50,SK-MEL-28,12.9 µM (inactive)
same,GI50,SK-MEL-2,9.91 µM (inactive)
same,GI50,SK-MEL-5,7.94 µM (inactive)
same,GI50,SK-OV-3,12.6 µM (inactive)
same,GI50,SN12C,11.6 µM (inactive)
same,GI50,SNB-19,10.8 µM (inactive)
same,GI50,SNB-75,9.27 µM (inactive)
same,GI50,SR,3.8 µM (inactive)
same,GI50,SW-620,11.5 µM (inactive)
same,GI50,T47D,4.03 µM (inactive)
same,GI50,TK-10,14.1 µM (inactive)
same,GI50,U-251,4.84 µM (inactive)
same,GI50,UACC-257,10.9 µM (inactive)
same,GI50,UACC-62,11.3 µM (inactive)
same,GI50,UO-31,8.75 µM (inactive)
